In patent publication US20150080844A1, “THERAPY FOR KIDNEY DISEASE AND/OR HEART FAILURE BY INTRADERMAL INFUSION” (Medtronic, Inc., priority 2012, published 2015):
Like-named read-outs stand apart in the source and are kept apart here.

Tests used:
clinical = experiment: clinical; design: species or system humans; settings: in vivo; for bioavailability: F (bioavailability)
Protocol: (§1) Osterode et al. published plasma concentration data for humans injected with ANP by either SQ or IV bolus. FIG. 5 presents the IV bolus data (FIG. 5A) and SQ bolus data (FIG. 5B) from the Osterode et al. with selected points digitized shown by open circles.
(§2) The digitized data points from FIG. 5A and FIG. 5B were baseline-corrected and analyzed using a commercial pharmacokinetic analysis software package (Phoenix v6.2, Pharsight, Cary, N.C.). Non-compartmental analysis (NCA) was performed first, followed by compartmental modeling. Bioavailability for administration into the SQ space (F) was estimated by dividing the area-under-the-curve (AUC) for the SQ bolus (FIG. 5B) by the AUC IV bolus (FIG. 5A), which was assumed to have 100% bioavailability. The slope of the terminal phase (λZ) for the IV and SQ data from FIG. 5 was estimated using linear regression. The estimate for λZ was converted to a half-life (t1/2) using Equation 1.
Similarly, the one-compartmental model for SQ bolus injection can be modeled by Equations 4 and 5, where Aa is the amount of drug in the injection site (pmol), ka is the absorption rate constant (1/min), and F is the bioavailability as a unitless decimal. The initial estimates for primary model parameters ke and V/F were taken from the results of the NCA analysis of the IV data (ke=λZ) from the IV bolus data in FIG. 5A from Osterode et al. The initial estimate for the primary model parameter ka was taken from the results of the NCA analysis of the SQ data (ka=λZ) from the SQ bolus data in FIG. 5B. Clearance (CL) and t½ were calculated as secondary model parameters.
Table 1 reports the values for AUC, elimination t1/2, volume of distribution (V) and clearance (CL) reported by Osterode et al. compared to those obtained from the NCA analysis of the digitized data as described above.
The results of the one-compartment modeling of the data from Osterode et al. are reported in Table 2 and FIG. 7, where the present NCA results are also included for comparison. FIGS. 7A (log scale) and 7B (non-log scale) show a model for a 50 μg IV bolus and FIGS. 7C (log scale) and 7D (non-log scale) show a model for a 50 μg SQ bolus. Both the NCA and compartmental analysis estimate the bioavailability to be approximately 20%. It is notable that the estimates for ka from the SQ bolus data are nearly identical for the NCA and compartmental analysis (0.039 min^−1), while the compartmental analysis estimate for ke is 2.6-times greater than the NCA estimate (0.26 vs. 0.099 min^−1).

[1] = in vivo, iv, 50 ug; cited from earlier work
[2] = in vivo, cited from earlier work
[3] = design: species or system humans; settings: in vivo
Protocol: as §1
as §2, with “1. […]” for “1.”
Similarly, the one-compartmental model for SQ bolus injection can be modeled by Equations 4 and 5, where Aa is the amount of drug in the injection site (pmol), ka is the absorption rate constant (1/min), and F is the bioavailability as a unitless decimal. […] Clearance (CL) and t½ were calculated as secondary model parameters. […]

[4] = intradermal delivery; literature; cited from earlier work

Row | Compound | AUC (clinical; human, 50 ug) [pmol·min/L] | bioavailability (clinical; human) [%] | F (bioavailability) (clinical; human, iv) [%] | bioavailability (clinical; human, iv) [%] | V/F (clinical) [L] | compartmental analysis estimate for ke relative to NCA estimate (clinical) [times] | ke (clinical) [min⁻¹] | ke/ka (elimination greater than absorption) (clinical) | AUC [1] [pmol·min/L] | F (bioavailability) ([2]; human) [%] | AUC ([2]; 50 ug) [pmol·min/L] | mean terminal half-life, SQ bolus compared to IV bolus ([2]; 50 ug) [fold] | AUC ([3]; human, iv, 50 ug) [pmol·min/L] | ke [3] [min⁻¹] | bioavailability (in words) [4]
1 | CC[C@H](C)[C@@H]1NC(=O)[C@H](CCCNC(=N)N)NC(=O)[C@H](CC(=O)O)NC(=O)[C@H](CCSC)NC(=O)[C@H](CCCNC(=N)N)NC(=O)CNC(=O)CNC(=O)[C@H](Cc2ccccc2)NC(=O)[C@@H](NC(=O)[C@H](CO)NC(=O)[C@H](CO)NC(=O)[C@H](CCCNC(=N)N)NC(=O)[C@H](CCCNC(=N)N)NC(=O)[C@H](CC(C)C)NC(=O)[C@@H](N)CO)CSSC[C@@H](C(=O)N[C@@H](CC(N)=O)C(=O)N[C@@H](CO)C(=O)N[C@@H](Cc2ccccc2)C(=O)N[C@@H](CCCNC(=N)N)C(=O)N[C@@H](Cc2ccc(O)cc2)C(=O)O)NC(=O)CNC(=O)[C@H](CC(C)C)NC(=O)CNC(=O)[C@H](CO)NC(=O)[C@H](CCC(N)=O)NC(=O)[C@H](C)NC(=O)CNC1=O [ANP, atrial natriuretic peptide] | 344 | ~20 | 19.9 | ~20 | 167 | 2.6 | 0.26 | 6.6 | 1793 | 19.2 | 345 | 3 | 1731 | 0.099 | 
2 | Somatropin |  |  |  |  |  |  |  |  |  |  |  |  |  |  | high bioavailability
3 | Entanercept |  |  |  |  |  |  |  |  |  |  |  |  |  |  | high bioavailability
